Measured values reported in US8399609B2, “Treating or preventing extracellular matrix build-up” (RegeneRx Biopharmaceuticals, Inc., priority 2004, dated 2013).

System: Human Blood Platelets
Assay: Platelet aggregation assay (Payton duo-channel aggregometer), PAF-16-induced aggregation in platelet-rich plasma
Type: cell-based
Conditions: agonist PAF-16 20 ng/ml
Description: Platelet Aggregation Assay
The inhibitory effects of Tβ4 on platelet aggregation were tested using a Payton duo-channel aggregometer. This aggregometer produces a plot of % light transmission (directly proportional to % aggregation) vs. time.
For each experiment, one 9 ml blood sample was drawn from a fasting, non-smoking, healthy subject into a propylene tube containing 1 ml of 3.8% sodium-citrate (anti-coagulant). This blood sample was then diluted with 2 ml of phosphate buffer (phosphate-buffer saline with 11 mM glucose and 3 mM sodium citrate). Dilution with phosphate buffer aids in stabilization of the platelet environment and retention of platelet activity for a longer period of time. Platelet-rich plasma (PRP) was prepared by centrifuging the blood for 3 min at 2300 RPM. After removal of PRP, the volume of the remaining blood was brought up to 10 ml by adding phosphate buffer, and the sample was once again centrifuged for the preparation of platelet-poor (PPP). To obtain PPP, we centrifuged the blood for 10 min at 2800 RPM.
Platelet aggregation tests were performed by recording % light transmission (vs. time) through samples of PRP. Before each assay, the aggregometer was adjusted such that PRP gave no light transmission. For aggregation assays, duplicate samples (0.4 ml) of PRP were incubated with 1 mM CaCl2 (to restore the physiologic concentration of Ca^++) for 1 min at 37° C. Different amounts of Tβ4, ranging for 20 to 300 ng, dissolved in 30 μl of distilled/deionized water, were added to each assay. The mixture was then incubated and stirred for an additional 2 min before aggregation was induced with an agonist.
Among the agonists used in the experiments were ADP, epinephrine, arachidonic acid, thrombin, collagen (Sigma Chemicals), and PAF (Platelet-activating factor)-16 (from Calbiochem). Concentrations of these reagents were 1 μm, 10 μm, 100 μg/ml, 0.2 NIH units, 0.05 mg/ml, and 20 ng/ml respectively. Two control assays were run at the beginning and end of each experiment. An assay without Tβ4 (but with an equivalent volume of H2O) constitutes a control, and the % light transmission produced by each control is assigned a value of % 100 for each experiment. For the measurement of % inhibition caused by Tβ4, light transmission in a Tβ4 assay was compared to the average light transmission in the start and end controls, using the following formula: […]

“thymosin beta 4 (SDKPDMAEIEKFDKSKLKKTETQEKNPLPSKETIEQEKQAGES; Thymosin beta-4; UniProt P62328 2-44, looked up) [Tβ4]” was tested, and the “Average % Inhibition of Aggregation” value (20 ng Tβ4 per assay (0.4 ml PRP)) was 50%, the “Average % Inhibition of Aggregation” value (40 ng Tβ4 per assay (0.4 ml PRP)) was 90% and the “Average % Inhibition of Aggregation” value (60 ng Tβ4 per assay (0.4 ml PRP)) was 100%. For the same substance, the “Average % Inhibition of Aggregation” value (80 ng Tβ4 per assay (0.4 ml PRP)) was 95%, the “Average % Inhibition of Aggregation” value (100 ng Tβ4 per assay (0.4 ml PRP)) was 92% and the “Average % Inhibition of Aggregation” value (300 ng Tβ4 per assay (0.4 ml PRP)) was 84%.
